Patent publication US8952025B2, “Multifunctional radical quenchers and their uses” (Arizona Board of Regents, A Body Corporate of the State of …, priority 2010, dated 2015)

Columns and labels:
cultured FRDA cells = assay: Cytoprotection of cultured FRDA cells depleted of glutathione; format: cell-based; conditions: pretreated then depleted of glutathione, read-out: Viable Cells (%)
From the text: The cells were pretreated with the compounds and then depleted of glutathione. The cell viability is expressed as percentage of total number of cells.

[1] = test system: NADH oxidase, bovine heart mitochondrial complex (I, III, IV); assay: NADH oxidase inhibition assay, submitochondrial particles; format: biochemical
Experimental: Beef heart mitochondria were obtained by a large-scale procedure. Inverted submitochondrial particles (SMP) were prepared by the method of Matsuno-Yagi and Hatefi (J. Biol. Chem. 260 (1985), p. 14424), and stored in a buffer containing 0.25 M sucrose and 10 mM Tris-HCl (pH 7.4) at −80° C. Inhibitory effects of compounds on bovine heart mitochondrial complex (I, III, IV) were evaluated. Maximal dimethyl sulfoxide concentration never exceeded 2% and had no influence on the control enzymatic activity. Beef heart SMP were diluted to 0.5 mg/mL. The enzymatic activities were assayed at 30° C. and monitored spectrophotometrically with a Beckman Coulter DU-530 (340 nm, c=6.22 mM^−1 cm^−1). NADH oxidase activity was determined in a reaction medium (2.5 mL) containing 50 mM Hepes, pH 7.5, containing 5 mM MgCl2. The final mitochondrial protein concentration was 30 μg. After the pre-equilibration of SMP with inhibitor for 5 min, the initial rates were calculated from the linear portion of the traces.
The activity is expressed as percentage of control.

[2] = test system: CoQ10 deficient lymphocyte cell line; assay: Total intracellular ATP concentration assay (luciferin-luciferase); format: cell-based, human; conditions: 48 h, glucose free media with galactose
From the text: The reductions of mitochondrial respiratory chain activity in CoQ10 deficient patients have been reported (Quinzii G M, Lopez L C, Von-Moltke J, Naini A, Krishna S, Schuelke M, Salviati L, Navas P, DiMauro S, and Hirano, M. Respiratory chain dysfunction and oxidative stress correlate with severity of primary CoQ10 deficiency. FASEB J. 2008; 22:1874-1885). The use of CoQ10 analogues to normalize and restore the respiratory chain activities could provide valuable therapeutic approach. We have evaluated the efficiency of oxidative phosphorylation in CoQ10 deficient lymphocyte (GM17932) in presence of tested CoQ10 analogues by measuring total cellular ATP content using (ViaLight® Plus ATP monitoring reagent kit, Lonza).
CoQ10 deficient lymphocyte and normal lymphocyte cell lines were obtained from Coriell Cell Repositories (Camden, N.J.; catalog number GM-17932, GM-158151, respectively). CoQ10 deficient lymphocytes were cultured under glucose-free media supplemented with galactose for two weeks to force energy production predominantly through oxidative phosphorylation rather than glycolysis (Quinzii et al.; Robinson B H, Petrova-Benedict R, Buncic J R, Wallace D C. Nonviability of cells with oxidative defects in galactose medium: A screening test for affected patient fibroblast. Biochem. Med. Metab. Biol. 1992; 48:122-126). Lymphocytes were cultured in RPMI 1640 medium glucose-free (Gibco, Grand Island, N.Y.) supplemented with 25 mM galactose, 2 mM glutamine and 1% penicillin-streptomycin (Cellgro), and 10%, dialyzed fetal bovine serum FBS 0.5 μg/mL) (GEMINI, Bio-Product), Briefly, lymphocytes (2×10^5 cell/mL), were plated (1 mL in 12-well plates) and treated with the test compounds at final concentrations of 5, 10 μM, and 25 μM and incubated at 37° C. for 48 h in a humidified atmosphere containing 5% CO2 in air. The test compounds were prepared by first making 20 mM stock solutions in DMSO. Cells were transferred (100 μL) to 96-well microtiter black-walled cell culture plates (Costar, Corning, N.Y.). The total intracellular ATP level was measured in a luminator (Clarity™ luminescence microplate reader) with the ATP Bioluminescence Assay Kit (ViaLight® Plus ATP monitoring reagent kit, Lonza) following the manufacturer's instructions. The standard curve of ATP was obtained by serial dilution of 1 mM ATP solution. After calibration against the ATP standard, the ATP content of the cell extract was determined and normalized for protein content in the cell.
To enforce the respiratory chain-dependent ATP synthesis, cells were grown for 48 hours in glucose free media supplemented with 25 mM galactose and 10% dialyzed fetal bovine serum (glucose concentration less than 0.5 μg/mL). FIG. 20 illustrates total intracellular ATP levels in CoQ10 deficient and normal lymphocytes measured using the luciferin-luciferase reaction. The levels of ATP shown in Table 1 are relative to the 100% value obtained for the CoQ10 deficient cells in FIG. 20.

What does the source list for COc1cc(N(C)C)nc(CCCCCCCCCCO)c1O?
viability at 0.1 µM (cultured FRDA cells): 33 ± 4.2%; viability at 0.5 µM (cultured FRDA cells): 28.3 ± 2.1%; viability at 2.5 µM (cultured FRDA cells): 29.5 ± 2.1%

Which “NADH oxidase activity (%)” value ([1]; 1 μM, percentage of control) does the source give for CCCCCCCCCCc1nc(N2C(C)CCC2C)nc(C)c1O (centres unmarked) here?
Its value is 40%.

And the IC50 ([1]; beef heart SMP)?
Its IC50 is 10.7 µM.

Cc1nc(N(C)C)nc(CCCCCCCCCCO)c1O [drawing 116] was tested. Which “Total ATP concentration (% of control)” value ([2]; 5 μM) did it give?
The value was 102.4 ± 1.2 % of control.

And the “Total ATP concentration (% of control)” value ([2]; 10 μM)?
Its value is 87.9 ± 4.3 % of control.

And the “Total ATP concentration (% of control)” value ([2]; 25 μM)?
Its value is 46.1 ± 1.2 % of control.

For COc1nc(N(C)C)nc(CCCCCCCCCCO)c1O [drawing 117], which “Total ATP concentration (% of control)” value ([2]; 5 μM) is on record?
Its value is 101.6 ± 1.4 % of control.

What about the “Total ATP concentration (% of control)” value ([2]; 10 μM) of the same compound?
The value was 96.8 ± 4.0 % of control.

What about the “Total ATP concentration (% of control)” value ([2]; 25 μM) of the same compound?
Its value is 48.7 ± 0.8 % of control.

What does the source list for CCCCCc1nc(N(C)C)nc(C)c1O [drawing 118]?
Total ATP concentration (% of control) ([2]; 5 μM): 109.3 ± 2.3 % of control; Total ATP concentration (% of control) ([2]; 10 μM): 111.1 ± 1.5 % of control; Total ATP concentration (% of control) ([2]; 25 μM): 105.6 ± 2.4 % of control

With CCCCCCCCCCc1nc(N(C)C)nc(C)c1O [drawing 119] as the compound, how does the “Total ATP concentration (% of control)” value ([2]; 5 μM) read?
Its value is 106.6 ± 2.7 % of control.

And the “Total ATP concentration (% of control)” value ([2]; 10 μM)?
The value was 98.7 ± 1.1 % of control.

What about the “Total ATP concentration (% of control)” value ([2]; 25 μM) of the same compound?
Its value is 75.3 ± 1.8 % of control.

What does the source list for CCCCCCCCCCCCCCCCc1nc(N(C)C)nc(C)c1O [drawing 120]?
Total ATP concentration (% of control) ([2]; 5 μM): 111.5 ± 1.8 % of control; Total ATP concentration (% of control) ([2]; 10 μM): 106.9 ± 2.7 % of control; Total ATP concentration (% of control) ([2]; 25 μM): 101.6 ± 3.1 % of control

With CCCCCCCCCCc1nc(N(C)C)nc(OC)c1O [drawing 121] as the compound, how does the “Total ATP concentration (% of control)” value ([2]; 5 μM) read?
Its value is 109.4 ± 5.0 % of control.

And the “Total ATP concentration (% of control)” value ([2]; 10 μM)?
Its value is 110.5 ± 6.5 % of control.

And the “Total ATP concentration (% of control)” value ([2]; 25 μM)?
The value was 68.3 ± 2.7 % of control.

What does the source list for CCCCCCCCCCCCCCCCc1nc(N(C)C)nc(OC)c1O [drawing 122]?
Total ATP concentration (% of control) ([2]; 5 μM): 122.3 ± 1.9 % of control; Total ATP concentration (% of control) ([2]; 10 μM): 116.4 ± 0.5 % of control; Total ATP concentration (% of control) ([2]; 25 μM): 113.0 ± 1.6 % of control

Which results are given for Cc1nc(N(C)C)nc(CCCCCCCCCCO)c1O [drawing 123]?
viability at 0.1 µM (cultured FRDA cells): 63.6 ± 8.4%; viability at 0.5 µM (cultured FRDA cells): 83.5 ± 0.7%; viability at 2.5 µM (cultured FRDA cells): 82.7 ± 8.1%

Cc1cc(N(C)C)nc(CCCCCCCCCCO)c1O [drawing 124] was tested. Which viability at 0.1 µM (cultured FRDA cells) did it give?
Its viability at 0.1 µM is 54 ± 5.2%.

What about the viability at 0.5 µM (cultured FRDA cells) of the same compound?
The viability at 0.5 µM was 76.5 ± 2.1%.

And the viability at 2.5 µM (cultured FRDA cells)?
Its viability at 2.5 µM is 81.7 ± 5%.

Which viability at 0.1 µM (cultured FRDA cells) does the source give for COc1nc(N(C)C)nc(CCCCCCCCCCO)c1O [drawing 125] here?
The viability at 0.1 µM was 55.6 ± 5.7%.

What about the viability at 0.5 µM (cultured FRDA cells) of the same compound?
The viability at 0.5 µM was 80 ± 4%.

What about the viability at 2.5 µM (cultured FRDA cells) of the same compound?
The viability at 2.5 µM was 78.3 ± 7.5%.

With CCCCCc1nc(N(C)C)nc(C)c1O [drawing 127] as the compound, how does the viability at 0.1 µM (cultured FRDA cells) read?
Its viability at 0.1 µM is 46 ± 3.5%.

And the viability at 0.5 µM (cultured FRDA cells)?
The viability at 0.5 µM was 78.7 ± 4%.

And the viability at 2.5 µM (cultured FRDA cells)?
The viability at 2.5 µM was 81.3 ± 5.1%.
